Experimental data taken from article PMC6897945, “CytA, a reductase in the cytorhodin biosynthesis pathway, inactivates anthracycline drugs in Streptomyces” (Communications Biology, 2019).
Converted amounts (≈) assume the structure as drawn. Where two headings read alike, the source gives them in different places.

Columns and labels:
CytA = experiment: Enzyme kinetics of CytA (formation of deglycosylation products, anaerobic); format: biochemical, Streptomyces sp. SCSIO 1666; conditions: substrate of CytA; 0.5 μM CytA, 20 μM NADH, anaerobic
Description: Enzymatic reactions were carried out under anaerobic conditions in an anaerobic workstation (Don Whitley Scientific A45) containing a gas phase of N2/H2/CO2 (80:10: 10%, by vol.). ^1H, ^13C, and 2D (COSY, HMQC, HMBC and NOESY) NMR spectra were recorded at 25 °C with an Avance 700 MHz spectrometer instruments (Bruker). High-resolution mass spectra were obtained with a Maxis quadrupole-time-of-flight mass spectrometer (Bruker).
To validate the in vitro biochemical activities of CytA, we overexpressed and purified this enzyme as a soluble N-terminally His6-tagged protein from E. coli (Fig. 2a). Tris-Cl buffer was made O2 free by boiling, followed by cooling under N2 flow; NADH stock solution (dissolved in Tris-Cl), substrate stock solution (dissolved in DMSO), and enzyme solution (dissolved in Tris-Cl supplemented with 10% glycerin) were subjected to O2 eliminating process in the anaerobic workstations for at least two cycles (40 min for one cycle). CytA enzymatic activity was tested in 50 μL volume containing 50 mM Tris-Cl (pH 8.0), 25 μM substrate, 0.5 μM CytA, and 20 μM NADH, at 37 °C for 30 min. The reaction was quenched with the addition to 2 volumes MeOH. After centrifugation to remove protein, supernatants were analyzed with Agilent HPLC equipment using a Phenomenex Prodigy ODS column S5 (150 × 4.60 mm, 5 μ) and UV detection at 254 and 500 nm. Samples were eluted with a gradient elution of phase A containing 0.1% TFA in ddH2O and phase B containing 100% acetonitrile, at a flow rate of 1 mL/min.
Kinetic analyses of CytA with putative substrates 6–10, daunorubicin, doxorubicin, idarubicin, epirubicin and pirarubicin, involved a reaction volume of 20 μL consisting of 50 mM Tris-Cl (pH 8.0), 0.5 μM CytA, 20 μM NADH, […]
All assays were performed in triplicate and Km and Vmax values were calculated on the basis of curve fitting to the Michaelis-Menten equation: v = Vmax *[S]/(Km + [S]) (Supplementary Fig. 7).
For kinetics of CytA, Origin 9.0 (OriginLab Co.) was used to analyze on the basis of curve fitting to the Michaelis-Menten equation. Experiments were performed in triplicate independently. For antibacterial activity, experiments were performed in triplicate using 96-well plates.

B. subtilis BS01 = experiment: Antibacterial activity, broth dilution MIC; format: cell-based; conditions: Bacillus subtilis
Description: (§1) The antibacterial activities of compounds 1–13 were assessed using twofold serial dilutions of antibacterial agents in MH broth, according to previously reported standard methods provided by Clinical and Laboratory Standards Institute (CLSI)[30]. These compounds were tested for their antibacterial activities against Bacillus subtilis BS01, Staphyloccocus aureus ATCC 29213, Staphyloccocus aureus 745524, Bacillus thuringiensis BT01, and Enterococcus faecalis ATCC 29212 using a broth dilution method.

B. thuringiensis BT01 = experiment: Antibacterial activity, broth dilution MIC; format: cell-based; conditions: Bacillus thuringiensis
Description: as §1

E. faecalis ATCC 29212 = experiment: Antibacterial activity, broth dilution MIC; format: cell-based; conditions: Enterococcus faecalis
Description: as §1

[1] = tested on: Staphylococcus aureus 745524; experiment: Antibacterial activity, broth dilution MIC; format: cell-based
Description: as §1

[2] = tested on: Staphylococcus aureus ATCC 29213; experiment: Antibacterial activity, broth dilution MIC; format: cell-based
Description: as §1

[3] = Cytotoxic activity, MTT method; format: cell-based; conditions: human
From the text: (§2) All data were obtained in triplicate and are presented as means.

[4] = tested on: A549 human lung cancer cell line; experiment: Cytotoxic activity, MTT method; format: cell-based; conditions: A549, read-out: Cytotoxic activities IC50, A549
From the text: as §2

[5] = tested on: HeLa human cervical carcinoma cell line; experiment: Cytotoxic activity, MTT method; format: cell-based; conditions: read-out: Cytotoxic activities IC50, HeLa
From the text: as §2

[6] = tested on: HepG2 human hepatocellular carcinoma cell line; experiment: Cytotoxic activity, MTT method; format: cell-based; conditions: HepG2, read-out: Cytotoxic activities IC50, HepG2
From the text: as §2

[7] = tested on: MCF-7 human breast adenocarcinoma cell line; experiment: Cytotoxic activity, MTT method; format: cell-based; conditions: MCF7, read-out: Cytotoxic activities IC50, MCF-7
From the text: as §2

[8] = tested on: MDA-MB-231 human triple negative breast adenocarcinoma cell line; experiment: Cytotoxic activity, MTT method; format: cell-based; conditions: MDA-MB-231, read-out: Cytotoxic activities IC50, MDA-MB-231
From the text: as §2

[9] = tested on: MDA-MB-468 human triple negative breast adenocarcinoma cell line; experiment: Cytotoxic activity, MTT method; format: cell-based; conditions: MDA-MB-468, read-out: Cytotoxic activities IC50, MDA-MB-468
From the text: as §2

[10] = tested on: RKO human colorectal carcinoma cell line; experiment: Cytotoxic activity, MTT method; format: cell-based; conditions: read-out: Cytotoxic activities IC50, RKO
From the text: as §2

[11] = tested on: five gram-positive bacteria; experiment: Antibacterial activities, set of five gram-positive bacteria; format: cell-based; conditions: set of five gram-positive bacteria (Table 2)
Description: as §1

[12] = tested on: Streptomyces sp. SCSIO 1666 WT; experiment: Growth inhibition zone assay; format: cell-based; conditions: WT strain, Fig. 3
From the text: (§3) We also noted that the ∆cytA mutant strain accumulated small amounts (80~100-fold lower than WT producer) of the immediate biosynthetic precursors of cosmomycins A (3) and B (4). The in vitro antimicrobial activities of compounds 1–13 against a panel of gram-positive bacteria (Table 2) provided some insight into the possible physiological significance of CytA-catalyzed reductions. Furthermore, we had observed that the ΔcytA mutant strain is clearly impaired relative to the WT strain upon addition of 6 or 7 as potential substrates. To evaluate this effect, we probed the sensitivity of Streptomyces sp. SCSIO 1666 to 6 and 7 in an inhibition zone assay (Fig. 3). A clear inhibition zone (16 mm) using the ΔcytA mutant plate was observed when supplemented with 1 μg of 6 or 7. […] That CytA production endows cosmomycin resistance provides strong evidence that the cytA gene directly confers Streptomyces. sp. SCSIO 1666 with the ability to protect itself from the effects by self-resistance to cosmomycins C and D.
(§4) Fig. 3 Sensitivity of Streptomyces sp. SCSIO 1666 toward cosmomycin C (6) and cosmomycin D (7) (1 μg) as determined by growth inhibition zone assays. […] TEXT PRINTED IN THE PICTURE: 6: ΔcytA mutant strain: 16 mm DOUBTS OF THE COPYIST ABOUT THIS PICTURE: 6, ΔcytA mutant strain: the small yellow print reads 16 mm, but it could be 15 or 18 mm / 6: the yellow double arrow marked 16 mm spans the zone around disc 6. The picture prints no measure name, so it may be the inhibition zone diameter or only a scale mark

[13] = tested on: Streptomyces sp. SCSIO 1666 ΔcytA mutant strain; experiment: Growth inhibition zone assay; format: cell-based; conditions: ∆cytA mutant strain, Fig. 3
From the text: as §3, §4

MDA-MB-468 cells = conditions: cited from earlier work
[14] = B. subtilis BS01, triplicate, read-out: MIC values, BS
[15] = ATCC29212, E. faecalis ATCC 29212, triplicate, read-out: MIC values, EF
[16] = Staphylococcus aureus 745524, triplicate, read-out: MIC values, SA2
[17] = ATCC29213, Staphylococcus aureus ATCC 29213, triplicate, read-out: MIC values, SA1
[18] = Huvec-12 normal cell line, read-out: Cytotoxic activities IC50, Huvec-12
[19] = L02 normal cell line, read-out: Cytotoxic activities IC50, L02
[20] = B. thuringiensis BT01, triplicate, read-out: MIC values, BT

Structure (SMILES) | Km (CytA) [µM] | kcat (CytA) [s⁻¹] | MIC (B. subtilis BS01; [14]) [µg/mL] | MIC (B. thuringiensis BT01; BT01, read-out: MIC values, BT) [µg/mL] | MIC (E. faecalis ATCC 29212; [15]) [µg/mL] | MIC [1, 16] [µg/mL] | MIC [2, 17] [µg/mL] | IC50 [3, 18] [µM] | IC50 [3, 19] [µM] | IC50 [4] [µM] | IC50 [5] [µM] | IC50 [6] [µM] | IC50 [7] [µM] | IC50 [8] [µM] | IC50 [9] [µM] | IC50 [10] [µM] | MIC [11] [µg/mL] | MIC (B. thuringiensis BT01; [20]) [µg/mL] | also measured
CC[C@@]1(O)C[C@H](O)c2c(O)c3c(c(O)c2[C@H]1C(=O)OC)C(=O)c1cccc(O)c1C3=O [Compound 10, ε-rhodomycinone] | 31.2 | 0.00233 | > 32 | > 32 | > 32 | > 32 | > 32 | 15.3 | 11.8 | 33.2 | 20.2 | 17.2 | 37.3 | > 50 | 7.43 | 18.5 | > 32 | – | activity in growth inhibition zone assay [12]: inactive; activity in growth inhibition zone assay [13]: inactive
CC[C@@]1(O)CCc2c(O)c3c(c(O)c2[C@H]1O[C@H]1C[C@H](N(C)C)[C@H](O[C@H]2C[C@H](O)[C@H](O[C@H]4CC[C@H](O)[C@H](C)O4)[C@H](C)O2)[C@H](C)O1)C(=O)c1cccc(O)c1C3=O [Compound 4, cosmomycin B] | – | – | 0.25 (≈ 0.324 µM) | – | 0.03 (≈ 0.0389 µM) | 0.125 (≈ 0.162 µM) | 0.25 (≈ 0.324 µM) | 0.41 | 0.32 | 0.021 | 0.017 | 0.038 | 0.65 | 0.85 | 0.71 | 0.089 | – | 0.25 (≈ 0.324 µM) | cytotoxic activity against MDA-MB-468 cells (MDA-MB-468 cells): devoid of activity
CC[C@@]1(O)CCc2c(O)c3c(c(O)c2[C@H]1C(=O)OC)C(=O)c1cccc(O)c1C3=O [Compound 11] | – | – | > 32 | – | > 32 | > 32 | > 32 | – | – | – | – | – | – | – | – | – | > 32 | > 32 | –
CC[C@@]1(O)C[C@H](O[C@H]2C[C@H](N(C)C)[C@H](O)[C@H](C)O2)c2c(O)c3c(c(O)c2[C@H]1C(=O)OC)C(=O)c1cccc(O)c1C3=O [Compound 9, ε-rhodomycin] | 8.5 | 0.0055 | – | 4 (≈ 6.83 µM) | – | – | – | 7.21 | 14 | 1.92 | 1.01 | 1.91 | 11.7 | 6.63 | 13.5 | 2.88 | – | – | MIC (B. subtilis BS01; BS01, read-out: MIC values, BS): 8 µg/mL (≈ 13.7 µM); MIC (E. faecalis ATCC 29212; ATCC29212, read-out: MIC values, EF): 8 µg/mL (≈ 13.7 µM); MIC ([1]; Staphylococcus aureus, 745524, read-out: MIC values, SA2): 4 µg/mL (≈ 6.83 µM); MIC ([2]; Staphylococcus aureus, ATCC29213, read-out: MIC values, SA1): 4 µg/mL (≈ 6.83 µM)
